The target in one data set is T1, NLRP3 (Homo sapiens, UniProt Q96P20).
T1 construct: endogenous in cells; host or cells: THP-1 cells (IFN-γ differentiated, LPS primed, ATP stimulated)
The data set can be described thus: IL-1β (interleukin-1β) secretion in IFN-γ-differentiated, LPS/ATP-stimulated THP-1 cells (half inhibition rate of NLRP3). The settings on record: IFN-γ 25 ng/mL, LPS 50 ng/mL, ATP 5 mM. Format: cell-based. Summed up: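 IFN-γ-differentiated THP-1 cells primed with LPS (final 50 ng/mL, 4 h, serum-free), then given compound for 1 h and ATP (final 5 mM) for 1 h at 37 °C. Secreted IL-1β in supernatant quantified by sandwich ELISA (mAb Mt175 capture, biotinylated mAb7P10 detection, streptavidin-HRP/TMB, 450 nm).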

The nature of data set [1]: In vivo pharmacokinetic evaluation in mice (IV and PO). The settings on record: CD-1 mice. On the procedure: CD-1 mice, after fasting overnight (free drinking), are divided into tail vein (IV) and gavage administration (PO) groups. The tail vein administration group collected 0.1 mL of blood from the orbital venous plexus before administration and 5 minutes, 15 minutes, 0.5 hours, 1 hour, 2 hours, 4 hours, 8 hours, 12 hours, and 24 hours after administration, and sample centrifugation at 4° C. for 5 minutes, and stored at −70° C. for testing. […] The plasma parent drug concentration was determined by LC-MS/MS.

T1 sequence (Q96P20 whole entry): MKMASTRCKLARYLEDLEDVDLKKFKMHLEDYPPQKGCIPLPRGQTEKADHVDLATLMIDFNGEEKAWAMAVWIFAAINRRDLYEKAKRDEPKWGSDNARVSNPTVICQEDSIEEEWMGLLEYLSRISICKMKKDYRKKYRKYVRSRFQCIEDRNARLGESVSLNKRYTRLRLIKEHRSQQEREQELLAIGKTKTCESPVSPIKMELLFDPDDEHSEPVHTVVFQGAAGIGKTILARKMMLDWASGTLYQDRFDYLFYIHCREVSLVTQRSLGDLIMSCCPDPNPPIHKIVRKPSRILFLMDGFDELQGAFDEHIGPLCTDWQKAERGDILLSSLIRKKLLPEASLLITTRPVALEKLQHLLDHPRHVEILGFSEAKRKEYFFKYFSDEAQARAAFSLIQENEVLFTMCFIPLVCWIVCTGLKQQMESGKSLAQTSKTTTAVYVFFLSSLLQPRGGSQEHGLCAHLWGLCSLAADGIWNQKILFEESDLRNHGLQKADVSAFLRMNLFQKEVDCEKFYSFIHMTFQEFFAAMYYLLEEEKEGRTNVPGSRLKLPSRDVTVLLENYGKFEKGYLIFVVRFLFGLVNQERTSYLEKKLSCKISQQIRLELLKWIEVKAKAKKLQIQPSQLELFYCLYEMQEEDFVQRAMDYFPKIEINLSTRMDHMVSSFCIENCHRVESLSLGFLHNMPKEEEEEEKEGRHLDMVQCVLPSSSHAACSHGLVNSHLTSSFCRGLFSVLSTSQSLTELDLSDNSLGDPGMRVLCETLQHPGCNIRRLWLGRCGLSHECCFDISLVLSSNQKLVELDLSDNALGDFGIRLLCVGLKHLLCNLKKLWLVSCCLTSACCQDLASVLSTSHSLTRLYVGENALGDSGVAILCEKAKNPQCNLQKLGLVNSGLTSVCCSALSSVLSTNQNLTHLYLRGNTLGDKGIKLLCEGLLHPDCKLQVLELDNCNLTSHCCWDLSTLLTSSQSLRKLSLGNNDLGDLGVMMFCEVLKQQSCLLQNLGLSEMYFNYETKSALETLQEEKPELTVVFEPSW

In the case of `Cc1nc(N[C@@H]2CCCC[C@H]2O)nnc1-c1ccc(C(F)(F)F)cc1O` [Embodiment 33], the IC50 against NLRP3 is 5.8 nM. In data set [1] (PO, 20 mg/kg), this molecule showed an F of 98.0%. In data set [1] (mouse, plasma, IV, 3 mg/kg), this molecule showed an AUC of 4.59 µg·h/mL, a clearance of 0.653 L/h/kg and a half-life of 4.89 h. Besides, the Vd in data set [1] (mouse, plasma, IV, 3 mg/kg, read-out: Vss) stood at 2.6 L/kg. In data set [1] (mouse, plasma, PO, 20 mg/kg), this molecule had an AUC of 30 µg·h/mL, a peak concentration (Cmax) of 8.52 µg/mL and a half-life of 3.6 h.

The record behind these values is US20250002470A1, “NITROGEN-CONTAINING COMPOUND, PREPARATION METHOD THEREFOR AND APPLICATION THEREOF” (ZHEJIANG AIXPLORER BIOTECH CO., LTD., priority 2021, published 2025).
